Data reported in patent US8633251B2, “Derivatives of aminoalkanols, method of obtaining of aminoalkanols and their use” (Uniwersytet Jagiellonski, priority 2008, dated 2014).
Counter-ions that a name gives are not always drawn. Like-named read-outs stand apart in the source and are kept apart here.

Experiments:
[1] = test system: maximal electroshock seizures; assay: Maximum Electroshock Seizure (MES) test, mice; assay type: in vivo
Protocol: (§1) In order to define anticonvulsant activity, screening tests were performed, using animal models of seizures. […] Each substance (after dissolving in methylcellulose) was normally tested in doses 30, 100, and 300 mg/kg body weight (b.w.) (mice) or in 30 and 50 mg/kg b.w. (rats) in two possible routes of administration: intraperitoneal (i.p.) or oral (p.o.). Appropriate tests were performed 0.5 and 4 h after administration of the compound. […] (mice) the tests were also performed in doses 10 and 3 mg/kg b.w.
Maximum Electroshock Seizure (MES) test is an electric test, verifying activity towards generalized tonic-clonic seizures (grand mal epilepsy). […] Its procedure consists in administration to an animal a mentioned dose, and after 0.5 or 4 h attaching corneal electrodes (after anesthetic eye-drops: 0.5% tetracaine hydrochloride in 0.9% NaCl) and turning on electric current (60 Hz, 0.2 s, 50 mA (mice) or 150 mA (rats)). […] Normally, in the dose 30 mg/kg b.w. the test is done in 1 mouse after 0.5 or 4 h, in the dose 100 mg/kg b.w.—in 3 mice, and in the dose 300 mg/kg b.w.—in 1 mouse.

neurotoxicity (rotarod) = assay: Neurotoxicity test (TOX), rotarod, mice; assay type: in vivo
Protocol: as §1
It is performed with use of rotarod test. The animal is placed on a plastic rod (1 inch in diameter), rotating 6 rpm. The rod is placed on a level discouraging the animal to jump off. […] Neurotoxicity is stated if the animal cannot stay on the rod for 1 min. in any of 3 trials. Normally the test is performed in dose 30 mg/kg b.w. in 4 mice (0.5 h) and in 2 mice (4 h), in the dose 100 mg/kg b.w. in 8 mice (0.5 h) and in 4 mice (4 h) and in the dose 300 mg/kg b.w. in 4 mice (0.5 h) and 2 mice (4 h).

[2] = mice, dose 100 mg/kg b.w., time 0.5 h
[3] = mice, dose 300 mg/kg b.w., time 0.5 h
[4] = mice, dose 30 mg/kg b.w., time 0.5 h
[5] = mice, dose 300 mg/kg b.w., time 4 h
[6] = Mus musculus, 0.5 h, read-out: MES, No. of protected animals/No. of used animals
[7] = mice, dose 100 mg/kg b.w., time 4 h

Row | SMILES | MES, No. of protected animals/No. of used animals [1, 2] | TOX, No. of animals exhibiting motor impairment/no. of used animals (neurotoxicity (rotarod); mouse, in vivo, 300 mg/kg) | MES, No. of protected animals/No. of used animals [1, 4] | TOX, No. of animals exhibiting motor impairment/no. of used animals (neurotoxicity (rotarod); [3]) | TOX, No. of animals exhibiting motor impairment/no. of used animals (neurotoxicity (rotarod); [2]) | also measured
1 | Cc1ccc(C)c(OCCNC(C)CO)c1 (centres unmarked) [Compound 6, R,S-2N-[(2,5-dimethylphenoxy)ethyl]amino-1-propanol] | 3/3 | 4/4 | – | – | – | MES, No. of protected animals/No. of used animals [1, 3]: 1/1
2 | CCC(O)CNCCOc1cc(C)ccc1C (centres unmarked) [Compound 7, R,S-1N-[(2,5-dimethylphenoxy)ethyl]amino-2-butanol] | 3/3 | 4/4 | – | – | – | MES, No. of protected animals/No. of used animals [1, 3]: 1/1; TOX, No. of animals exhibiting motor impairment/no. of used animals (neurotoxicity (rotarod); mouse, in vivo, 100 mg/kg): 8/8
3 | CCC(CO)NCCOc1cc(C)ccc1C (centres unmarked) [Compound 8, R,S-2N-[(2,5-dimethylphenoxy)ethyl]amino-1-butanol] | 3/3 | 4/4 | – | – | – | TOX, No. of animals exhibiting motor impairment/no. of used animals (neurotoxicity (rotarod); mouse, in vivo, 100 mg/kg): 8/8
4 | Cc1cccc(C)c1OCCNC(C)CO.Cl (centres unmarked) [Compound 11a, R,S-2N-[(2,6-dimethylphenoxy)ethyl]amino-1-propanol hydrochloride] | 1/1 | 4/4 | 1/1 | – | – | TOX, No. of animals exhibiting motor impairment/no. of used animals (neurotoxicity (rotarod); mouse, in vivo, 30 mg/kg): 3/4; TOX, No. of animals exhibiting motor impairment/no. of used animals (neurotoxicity (rotarod); mouse, in vivo, 100 mg/kg): 8/8
5 | Cc1cccc(C)c1OCCN[C@H](C)CO [Compound 12a, R-(−)-2N-[(2,6-dimethylphenoxy)ethyl]amino-1-propanol hydrochloride] | – | – | – | – | – | MES, No. of protected animals/No. of used animals ([1]; mice, dose 100 mg/kg b.w., time 0.5 h, hydrochloride, 100 mg/kg): 3/3; TOX, No. of animals exhibiting motor impairment/no. of used animals (neurotoxicity (rotarod); [5]): 1/1
6 | Cc1cccc(C)c1OCCN[C@@H](C)CO.Cl [Compound 13a, S-(+)-2N-[(2,6-dimethylphenoxy)ethyl]amino-1-propanol hydrochloride] | 3/3 | 4/4 | 1/1 | – | – | TOX, No. of animals exhibiting motor impairment/no. of used animals (neurotoxicity (rotarod); mouse, in vivo, 100 mg/kg): 8/8
7 | Cc1cccc(C)c1OCCNC(C)(C)CCO [Compound 15, 3N-[(2,6-dimethylphenoxy)ethyl]amino-3-methyl-1-butanol hydrochloride] | – | – | – | 7/8 | – | responders at 10 mg/kg [1, 6]: 100%; responders at 300 mg/kg [1, 6]: 100%; TOX, No. of animals exhibiting motor impairment/no. of used animals (neurotoxicity (rotarod); mice, dose 10 mg/kg b.w., time 0.5 h): 7/8; TOX, No. of animals exhibiting motor impairment/no. of used animals (neurotoxicity (rotarod); [4]): 4/4
8 | Cc1cccc(C)c1OCCN[C@H](CO)C(C)C [Compound 16, L-2N-[(2,6-dimethylphenoxy)ethyl]amino-3-methyl-1-butanol hydrochloride] | – | – | – | 4/4 | 7/8 | responders at 100 mg/kg [1, 6]: 100%
9 | Cc1cccc(C)c1OCCNCCCCCO [Compound 17, 5N-[(2,6-dimethylphenoxy)ethyl]amino-1-pentanol hydrochloride] | – | – | – | 4/4 | 7/8 | responders at 100 mg/kg [1, 6]: 100%; TOX, No. of animals exhibiting motor impairment/no. of used animals (neurotoxicity (rotarod); [5]): 1/1
10 | Cc1cccc(C)c1OCCNCC(O)c1ccccc1 (centres unmarked) [Compound 19, R,S-2N-[(2,6-dimethylphenoxy)ethyl]amino-1-phenylethanol] | 3/3 | – | 1/1 | 4/4 | 8/8 | TOX, No. of animals exhibiting motor impairment/no. of used animals (neurotoxicity (rotarod); [4]): 1/4
11 | Cc1cccc(C)c1OCCNC[C@@H](O)c1ccccc1 [Compound 21, S-(+)-2N-[(2,6-dimethylphenoxy)ethyl]amino-1-phenylethanol] | 3/3 | – | 1/1 | 4/4 | 7/8 | –
12 | Cc1cccc(Cl)c1OCCNC(C)CO (centres unmarked) [Compound 24, R,S-2N-[(2-chlor-6-methylphenoxy)ethyl]amino-1-propanol] | 3/3 | – | – | 4/4 | 5/8 | –
13 | CCC(O)CNCCOc1c(C)cccc1Cl (centres unmarked) [Compound 25, R,S-1N-[(2-chlor-6-methylphenoxy)ethyl]amino-2-butanol] | – | – | 1/1 | 4/4 | 8/8 | –
14 | CCC(CO)NCCOc1c(C)cccc1Cl.Cl (centres unmarked) [Compound 26a, R,S-2N-[(2-chlor-6-methylphenoxy)ethyl]amino-1-butanol hydrochloride] | 1/1 | – | 1/1 | 4/4 | 8/8 | TOX, No. of animals exhibiting motor impairment/no. of used animals (neurotoxicity (rotarod); [4]): 3/4; TOX, No. of animals exhibiting motor impairment/no. of used animals (neurotoxicity (rotarod); [7]): 1/4
15 | CC[C@H](CO)NCCOc1c(C)cccc1Cl.Cl [Compound 27a, R-(−)-2N-[(2-chlor-6-methylphenoxy)ethyl]amino-1-butanol hydrochloride] | 2/3 | – | 1/1 | 4/4 | 7/8 | –
16 | CC[C@@H](CO)NCCOc1c(C)cccc1Cl.Cl [Compound 28a, S-(+)-2N-[(2-chlor-6-methylphenoxy)ethyl]amino-1-butanol hydrochloride] | 1/1 | – | – | 4/4 | 5/8 | –
17 | Cc1cccc(Cl)c1OCCNC(C)(CO)CO [Compound 29, 2N-[(2-chlor-6-methylphenoxy)ethyl]amino-2-methyl-1,3-propandiol] | 2/3 | 4/4 | – | – | – | TOX, No. of animals exhibiting motor impairment/no. of used animals (neurotoxicity (rotarod); mouse, in vivo, 100 mg/kg): 4/8
18 | Cc1cccc(Cl)c1OCCNCC(O)c1ccccc1 (centres unmarked) [Compound 31, R,S-2N-[(2-chlor-6-methylphenoxy)ethyl]amino-1-phenylethanol] | 3/3 | – | 1/1 | 4/4 | 8/8 | MES, No. of protected animals/No. of used animals [1, 3]: 1/1
19 | CCC(O)CNCCOc1ccc(Cl)cc1C (centres unmarked) [Compound 34, R,S-1N-[(4-chlor-2-methylphenoxy)ethyl]amino-2-butanol] | 3/3 | – | – | 4/4 | 7/8 | TOX, No. of animals exhibiting motor impairment/no. of used animals (neurotoxicity (rotarod); [4]): 1/4
20 | CCC(CO)NCCOc1ccc(Cl)cc1C (centres unmarked) [Compound 35, R,S-2N-[(4-chlor-2-methylphenoxy)ethyl]amino-1-butanol] | 3/3 | – | – | 4/4 | 8/8 | –
21 | Cc1cc(Cl)ccc1OCCNC(C)(C)CO [Compound 36, 2N-[(4-chlor-2-methylphenoxy)ethyl]amino-2-methyl-1-propanol] | 3/3 | – | – | 4/4 | – | –
22 | Cc1cc(C)c(C)c(OCCNC(C)CO)c1 (centres unmarked) [Compound 38, R,S-2N-[(2,3,5-trimethylphenoxy)ethyl]amino-1-propanol] | 3/3 | 4/4 | 1/1 | – | – | MES, No. of protected animals/No. of used animals [1, 7]: 2/2
23 | CCC(CO)NCCOc1cc(C)cc(C)c1C (centres unmarked) [Compound 39, R,S-2N-[(2,3,5-trimethylphenoxy)ethyl]amino-1-butanol] | 3/3 | 4/4 | 1/1 | – | – | MES, No. of protected animals/No. of used animals [1, 7]: 1/3; TOX, No. of animals exhibiting motor impairment/no. of used animals (neurotoxicity (rotarod); mouse, in vivo, 100 mg/kg): 7/8
24 | CC[C@H](CO)NCCOc1cc(C)cc(C)c1C [Compound 40, R-(−)-2N-[(2,3,5-trimethylphenoxy)ethyl]amino-1-butanol] | – | – | – | 4/4 | 4/8 | responders at 30 mg/kg ([1]; Mus musculus, mice, dose 30 mg/kg b.w., time 0.5 h, read-out: MES, No. of protected animals/No. of used animals): 100%; responders at 100 mg/kg ([1]; Mus musculus, mice, dose 100 mg/kg b.w., time 0.5 h, read-out: MES, No. of protected animals/No. of used animals (converted)): 66.7%; responders at 100 mg/kg ([1]; Mus musculus, mice, dose 100 mg/kg b.w., time 4 h, read-out: MES, No. of protected animals/No. of used animals (converted)): 33.3%
